Values of other authors in patent publication US11959122B2.

test system: microbial flora in the target watershed; conditions: determined by EUCAST database; unit assumed; cited from earlier work

Row | Compound | Observed MIC [µg/mL]
1 | CC1(C)S[C@@H]2[C@H](NC(=O)[C@H](N)c3ccc(O)cc3)C(=O)N2[C@H]1C(=O)O [Amoxicillin] | 4
2 | CC1(C)S[C@@H]2[C@H](NC(=O)[C@H](N)c3ccccc3)C(=O)N2[C@H]1C(=O)O [Ampicillin] | 4
3 | CC[C@H]1OC(=O)[C@H](C)[C@@H](O[C@H]2C[C@@](C)(OC)[C@@H](O)[C@H](C)O2)[C@H](C)[C@@H](O[C@@H]2O[C@H](C)C[C@H](N(C)C)[C@H]2O)[C@](C)(O)C[C@@H](C)CN(C)[C@H](C)[C@@H](O)[C@]1(C)O [Azithromycin] | 16
4 | C[C@H]1[C@H](NC(=O)/C(=N\OC(C)(C)C(=O)O)c2csc(N)n2)C(=O)N1S(=O)(=O)O [Aztreonam] | 32
5 | N[C@@H](C(=O)N[C@@H]1C(=O)N2C(C(=O)O)=C(Cl)CS[C@H]12)c1ccccc1 [Cefaclor] | 32
6 | Cc1nnc(SCC2=C(C(=O)O)N3C(=O)[C@@H](NC(=O)Cn4cnnn4)[C@H]3SC2)s1 [Cefazolin] | 32
7 | CO/N=C(\C(=O)N[C@@H]1C(=O)N2C(C(=O)[O-])=C(C[N+]3(C)CCCC3)CS[C@H]12)c1csc(N)n1 [Cefepime] | 8
8 | CO/N=C(\C(=O)N[C@@H]1C(=O)N2C(C(=O)O)=C(COC(C)=O)CS[C@H]12)c1csc(N)n1 [Cefotaxime] | 2
9 | CO/N=C(\C(=O)N[C@@H]1C(=O)N2C(C(=O)[O-])=C(C[n+]3cccc4c3CCC4)CS[C@H]12)c1csc(N)n1 [Cefpirome] | 4
10 | CC(C)(O/N=C(\C(=O)N[C@@H]1C(=O)N2C(C(=O)[O-])=C(C[n+]3ccccc3)CS[C@H]12)c1csc(N)n1)C(=O)O [Ceftazidime] | 16
11 | Nc1nc(/C(=C/CC(=O)O)C(=O)N[C@@H]2C(=O)N3C(C(=O)O)=CCS[C@H]23)cs1 [Ceftibuten] | 8
12 | CO/N=C(\C(=O)N[C@@H]1C(=O)N2C(C(=O)O)=C(CSC(=O)c3ccco3)CS[C@H]12)c1csc(N)n1 [Ceftiofur] | 8
13 | CO/N=C(\C(=O)N[C@@H]1C(=O)N2C(C(=O)O)=C(CSc3nc(=O)c(=O)[nH]n3C)CS[C@H]12)c1csc(N)n1 [Ceftriaxone] | 2
14 | CO/N=C(\C(=O)N[C@@H]1C(=O)N2C(C(=O)O)=C(COC(N)=O)CS[C@H]12)c1ccco1 [Cefuroxime] | 8
15 | O=C(O)c1cn(C2CC2)c2cc(N3CCNCC3)c(F)cc2c1=O [Ciprofloxacin] | 2
16 | NC1CCN(c2c(F)cc3c(=O)c(C(=O)O)cn(C4CC4)c3c2Cl)C1 (stereo not drawn) [Clinafloxacin] | 32
17 | Cc1onc(-c2ccccc2Cl)c1C(=O)N[C@@H]1C(=O)N2[C@@H]1SC(C)(C)[C@@H]2C(=O)O [Cloxacillin] | 64
18 | CCCCCCCCCC(=O)N[C@@H](Cc1c[nH]c2ccccc12)C(=O)N[C@H](CC(N)=O)C(=O)N[C@@H](CC(=O)O)C(=O)N[C@@H]1C(=O)NCC(=O)N[C@@H](CCCN)C(=O)N[C@@H](CC(=O)O)C(=O)N[C@H](C)C(=O)N[C@@H](CC(=O)O)C(=O)NCC(=O)N[C@H](CO)C(=O)N[C@@H]([C@H](C)CC(=O)O)C(=O)N[C@@H](CC(=O)c2ccccc2N)C(=O)O[C@@H]1C [Daptomycin] | 32
19 | CN1CCN(c2cc3c(cc2F)c(=O)c(C(=O)O)cn3-c2ccc(F)cc2)CC1 [Difloxacin] | 2
20 | CCN1CCN(c2cc3c(cc2F)c(=O)c(C(=O)O)cn3C2CC2)CC1 [Enrofloxacin] | 8
21 | C[C@@H](O)[C@H]1C(=O)N2C(C(=O)O)=C(S[C@@H]3CN[C@H](C(=O)Nc4cccc(C(=O)O)c4)C3)[C@H](C)[C@H]12 [Ertapenem] | 2

Row | Compound | Observed MIC [µg/mL]
22 | CC[C@H]1OC(=O)[C@H](C)[C@@H](O[C@H]2C[C@@](C)(OC)[C@@H](O)[C@H](C)O2)[C@H](C)[C@@H](O[C@@H]2O[C@H](C)C[C@H](N(C)C)[C@H]2O)[C@](C)(O)C[C@@H](C)C(=O)[C@H](C)[C@@H](O)[C@]1(C)O [Erythromycin] | 16
23 | C[C@@H](O)[C@H]1C(=O)N2C(C(=O)O)=C([C@H]3CCCO3)S[C@H]12 [Faropenem] | 8
24 | CCc1c(Cl)c(O)c(Cl)c(O)c1C(=O)O[C@H]1[C@H](O)[C@H](OC)[C@H](OC/C2=C\C=C\C[C@H](O)/C(C)=C/[C@H](CC)[C@@H](O[C@@H]3OC(C)(C)[C@@H](OC(=O)C(C)C)[C@H](O)[C@@H]3O)/C(C)=C/C(C)=C/C[C@@H]([C@@H](C)O)OC2=O)O[C@@H]1C [Fidaxomicin] | 8
25 | OC(Cn1cncn1)(Cn1cncn1)c1ccc(F)cc1F [Fluconazol] | 64
26 | CC1CCc2cc(F)cc3c(=O)c(C(=O)O)cn1c23 (stereo not drawn) [Flumequine] | 64
27 | COc1c(N2CCNC(C)C2)c(F)cc2c(=O)c(C(=O)O)cn(C3CC3)c12 (stereo not drawn) [Gatifloxacin] | 4
28 | NNC(=O)c1ccncc1 [Isoniazide] | 64
29 | CC(=O)N1CCN(c2ccc(OCC3COC(Cn4ccnc4)(c4ccc(Cl)cc4Cl)O3)cc2)CC1 (stereo not drawn) [Ketoconazole] | 4
30 | C[C@@H](O)[C@H]1C(=O)N2C(C(=O)O)=C(S[C@@H]3CN[C@H](C(=O)N(C)C)C3)[C@H](C)[C@H]12 [MeropeneM] | 2
31 | Cc1ncc([N+](=O)[O-])n1CCO [Metronidazole] | 16
32 | C/C(=C\C(=O)OCCCCCCCCC(=O)O)C[C@@H]1OC[C@H](C[C@@H]2O[C@H]2[C@@H](C)[C@H](C)O)[C@@H](O)[C@H]1O [Mupirocin] | 32
33 | CCN[C@@H]1C[C@H](N)[C@@H](O[C@H]2OC(CN)=CC[C@H]2N)[C@H](O)[C@H]1O[C@H]1OC[C@](C)(O)[C@H](NC)[C@H]1O [Netilmicin] | 16
34 | CCn1cc(C(=O)O)c(=O)c2cc(F)c(N3CCNCC3)cc21 [Norfloxacin] | 16
35 | Cc1onc(-c2ccccc2)c1C(=O)N[C@@H]1C(=O)N2[C@@H]1SC(C)(C)[C@@H]2C(=O)O [Oxacillin] | 32
36 | CC1(C)S[C@@H]2[C@H](NC(=O)COc3ccccc3)C(=O)N2[C@H]1C(=O)O [Phenoxymethylpenicillin] | 4
37 | CCN1CCN(C(=O)N[C@@H](C(=O)N[C@@H]2C(=O)N3[C@@H]2SC(C)(C)[C@@H]3C(=O)O)c2ccccc2)C(=O)C1=O [Piperacillin] | 4
38 | C=C[C@]1(C)C[C@@H](OC(=O)CS[C@@H]2C[C@H]3CC[C@@H](C2)N3C)[C@]2(C)[C@H](C)CC[C@]3(CCC(=O)[C@H]32)[C@@H](C)[C@@H]1O [Retapamulin] | 64
39 | CC[C@H]1OC(=O)[C@H](C)[C@@H](O[C@H]2C[C@@](C)(OC)[C@@H](O)[C@H](C)O2)[C@H](C)[C@@H](O[C@@H]2O[C@H](C)C[C@H](N(C)C)[C@H]2O)[C@](C)(O)C[C@@H](C)/C(=N\OCOCCOC)[C@H](C)[C@@H](O)[C@]1(C)O [Roxithromycin] | 2
40 | Cc1ncc([N+](=O)[O-])n1CC(C)O (stereo not drawn) [Secnidazole] | 32
41 | CN[C@@H]1[C@H](O)[C@H](NC)[C@H]2O[C@@]3(O)C(=O)C[C@@H](C)O[C@H]3O[C@@H]2[C@H]1O [Spectinomycin] | 2
42 | CC[C@H]1OC(=O)[C@H](C)C(=O)[C@H](C)[C@@H](O[C@@H]2O[C@H](C)C[C@H](N(C)C)[C@H]2O)[C@](C)(OC)C[C@@H](C)C(=O)[C@H](C)[C@H]2N(CCCCn3cnc(-c4cccnc4)c3)C(=O)O[C@]12C [Telithromycin] | 16
